Measurements taken from publication PMC3936431 (Biomolecules & Therapeutics, 2014).

Columns and labels:
[1] = Stability in stock solutions and plasma samples; type: physicochemical, rabbits; details: for stock solution stability, mean %change: room temperature 12 h and 4°C 30 days
[2] = In vitro release, USP paddle method, phosphate buffer pH 7.4; type: physicochemical; details: in the first 30 min; paddle 100 rpm, phosphate buffer pH 7.4, 37°C
[3] = Pharmacokinetic studies after single intravenous or rectal administration; details: for Tmax / AUC(0-inf) / AUC(0-t): New Zealand white, rabbit, in vivo; for AUC(0-inf): AUC0-∞; for AUC(0-inf) / AUC(0-t) / AUC0-∞ / AUC0–30h: rabbits, plasma; for AUC(0-t): AUC0–30h
[4] = 100 mg/kg, rectal administration (suppository)
[5] = iv, 50 mg/kg, intravenous administration
[6] = intravenous administration, 50 mg/kg
[7] = rectal administration (suppository), 100 mg/kg

Row | drug released [2] | Tmax ([3]; 100 mg/kg) | AUC(0-inf) [3, 4] | AUC(0-t) [3, 4] | Tmax ([3]; iv, 50 mg/kg) | AUC(0-inf) [3, 5] | AUC(0-t) [3, 5] | AUC0-∞ [3, 6] | AUC0–30h [3, 6] | AUC0-∞ [3, 7] | AUC0–30h [3, 7] | SMILES | stock solution stability ([1]; 4°C for 30 days) | stock solution stability, mean %change [1] | stock solution stability ([1]; room temperature for 12 h)
1 |  |  |  |  |  |  |  |  |  |  |  | CC[C@@]1(O)C(=O)OCc2c1cc1n(c2=O)Cc2cc3ccccc3nc2-1 [IS, camptothecin] | stable | < 7.7% | stable
2 | 95% | 4 h | 41600 ± 7200 ng·h/mL | 32200 ± 6200 ng·h/mL | 0.25 h | 82300 ± 9500 ng·h/mL | 71300 ± 8800 ng·h/mL | 82330 ± 9470 ng·h/mL | 71310 ± 8750 ng·h/mL | 41620 ± 7240 ng·h/mL | 32150 ± 6150 ng·h/mL | CCc1c2c(nc3ccc(OC(=O)N4CCC(N5CCCCC5)CC4)cc13)-c1cc3c(c(=O)n1C2)COC(=O)[C@]3(O)CC [irinotecan, 7-ethyl-10-[4-(1-piperidino)-1-piperidino]-carbonyloxy-camptothecin] | stable | < 7.7% | stable
